US10308629B2, “1H-pyrrol-3-amines” (BAYER PHARMA AKTIENGESELLSCHAFT, priority 2015, dated 2019)
pIC50: −log10 of the molar value.

Molecular target: (recombinant) catalytic domain of human Bub1 (amino acids 704-1085) (Homo sapiens (Human), UniProt O43683)
Test: Bub1 kinase assay (TR-FRET)
Assay type: biochemical
Conditions: ATP 10 μM, peptide substrate 1 μM, 60 min at 22° C., read-out: Inhibition of Bub1 kinase IC50
Excerpt: Bub1-inhibitory activities of compounds described in the present invention were quantified using a time-resolved fluorescence energy transfer (TR-FRET) kinase assay which measures phosphorylation of the synthetic peptide Biotin-Ahx-VLLPKKSFAEPG (SEQ ID No. 1) (C-terminus in amide form), purchased from e.g. Biosyntan (Berlin, Germany) by the (recombinant) catalytic domain of human Bub1 (amino acids 704-1085), expressed in Hi5 insect cells with an N-terminal His6-tag and purified by affinity-(Ni-NTA) and size exclusion chromatography.
In a typical assay 11 different concentrations of each compound (0.1 nM, 0.33 nM, 1.1 nM, 3.8 nM, 13 nM, 44 nM, 0.15 μM, 0.51 μM, 1.7 μM, 5.9 μM and 20 μM) were tested in duplicate within the same microtiter plate. To this end, 100-fold concentrated compound solutions (in DMSO) were previously prepared by serial dilution (1:3.4) of 2 mM stocks in a clear low volume 384-well source microtiter plate (Greiner Bio-One, Frickenhausen, Germany), from which 50 nl of compounds were transferred into a black low volume test microtiter plate from the same supplier. Subsequently, 2 μL of Bub1 (the final concentration of Bub1 was adjusted depending on the activity of the enzyme lot in order to be within the linear dynamic range of the assay: typically ˜200 ng/mL were used) in aqueous assay buffer [50 mM Tris/HCl pH 7.5, 10 mM magnesium chloride (MgCl2), 200 mM potassium chloride (KCl), 1.0 mM dithiothreitol (DTT), 0.1 mM sodium ortho-vanadate, 1% (v/v) glycerol, 0.01% (w/v) bovine serum albumine (BSA), 0.005% (v/v) Trition X-100 (Sigma), 1× Complete EDTA-free protease inhibitor mixture (Roche)] were added to the compounds in the test plate and the mixture was incubated for 15 min at 22° C. to allow pre-equilibration of the putative enzyme-inhibitor complexes before the start of the kinase reaction, which was initiated by the addition of 3 μL 1.67-fold concentrated solution (in assay buffer) of adenosine-tri-phosphate (ATP, 10 μM final concentration) and peptide substrate (1 μM final concentration). The resulting mixture (5 μL final volume) was incubated at 22° C. during 60 min. and the reaction w as stopped by the addition of 5 μL of an aqueous EDTA-solution (50 mM EDTA, in 100 mM HEPES pH 7.5 and 0.2% (w/v) bovine serum albumin) which also contained the TR-FRET detection reagents (0.2 μM streptavidin-XL665 [Cisbio Bioassays, Codolet, France] and 1 nM anti-phosho-Serine antibody [Merck Millipore, cat. #35-002] and 0.4 nM LANCE EU-W1024 labeled anti-mouse IgG antibody [Perkin-Elmer, product no. AD0077, alternatively a Terbium-cryptate-labeled anti-mouse IgG antibody from Cisbio Bioassays can be used]). The stopped reaction mixture was further incubated 1 h at 22° C. in order to allow the formation of complexes between peptides and detection reagents. Subsequently, the amount of product was evaluated by measurement of the resonance energy transfer from the Eu-chelate-antibody complex recognizing the Phosphoserine residue to the streptavidin-XL665 bound to the biotin moiety of the peptide. To this end, the fluorescence emissions at 620 nm and 665 nm after excitation at 330-350 nm were measured in a TR-FRET plate reader, e.g. a Rubystar or Pherastar (both from BMG Labtechnologies, Offenburg, Germany) or a Viewlux (Perkin-Elmer) and the ratio of the emissions (665 nm/622 nm) was taken as indicator for the amount of phosphorylated substrate. The data were normalised using two sets of control wells for high−(=enzyme reaction without inhibitor=0%=Minimum inhibition) and low−(=all assay components without enzyme=100%=Maximum inhibition) Bub1 activity. IC50 values were calculated by fitting the normalized inhibition data to a 4-parameter logistic equation (Minimum, Maximum, IC50, Hill; Y=Max+(Min−Max)/(1+(X/IC50)Hill)).

Sequence of (recombinant) catalytic domain of human Bub1 (amino acids 704-1085) (O43683 704-1085): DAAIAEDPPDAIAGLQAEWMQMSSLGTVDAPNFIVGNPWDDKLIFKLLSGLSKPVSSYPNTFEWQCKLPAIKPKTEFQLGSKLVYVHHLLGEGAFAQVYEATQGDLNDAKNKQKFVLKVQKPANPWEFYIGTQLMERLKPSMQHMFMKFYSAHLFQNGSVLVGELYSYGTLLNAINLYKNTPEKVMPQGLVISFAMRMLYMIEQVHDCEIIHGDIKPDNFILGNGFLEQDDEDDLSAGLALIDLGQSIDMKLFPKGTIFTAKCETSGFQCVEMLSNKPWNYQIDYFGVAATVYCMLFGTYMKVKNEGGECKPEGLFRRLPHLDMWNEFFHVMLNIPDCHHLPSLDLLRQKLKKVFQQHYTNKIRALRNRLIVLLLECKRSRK

pIC50	Molecule
7.80	(1S,2S)-2-Fluoro-N-4-[[(4aS,5aS) or (4aR,5aR)]-5a-methyl-4-oxo-3-(phenylamino)-1,4,4a,5,5a,6-hexahydrocyclopropa[f]indol-2-yl]pyridin-2-ylcyclopropanecarboxamide [Example 36]
7.72	(4aR,5aR or 4aS,5aS)-3-(Phenylamino)-2-(pyridin-4-yl)-4a,5,5a,6-tetrahydrocyclopropa[f]indol-4(1H)-one [Example 13]
8.30	(4aR,5aR or 4aS,5aS)-5a-Methyl-3-(phenylamino)-2-(pyridin-4-yl)-4a,5,5a,6-tetrahydrocyclopropa[f]indol-4(1H)-one [Example 17]
8.40	(4aS,5aS or 4aR,5aR)-3-(Phenylamino)-2-(pyridin-4-yl)-4a,5,5a,6-tetrahydrocyclopropa[f]indol-4(1H)-one [Example 14]
8.22	(4aS,5aS or 4aR,5aR)-5a-Methyl-3-(phenylamino)-2-(pyridin-4-yl)-4a,5,5a,6-tetrahydrocyclopropa[f]indol-4(1H)-one [Example 18]
8.30	N-4-[[(4aS,5aS) or (4aR,5aR)]-5a-Methyl-4-oxo-3-(phenylamino)-1,4,4a,5,5a,6-hexahydrocyclopropa[f]indol-2-yl]pyridin-2-yl-1H-pyrazole-3-carboxamide [Example 44]
8.30	N-4-[[(7R) or (7S)]-7-Methyl-4-oxo-3-(phenylamino)-1,4,5,6,7,8-hexahydrocyclohepta[b]pyrrol-2-yl]pyridin-2-ylacetamide [Example 39]
7.57	N-4-[[(7S) or (7R)]-7-Methyl-4-oxo-3-(phenylamino)-1,4,5,6,7,8-hexahydrocyclohepta[b]pyrrol-2-yl]pyridin-2-ylacetamide [Example 38]
7.92	N-{4-[[(4aS,5aS) or (4aR,5aR)]-3-anilino-5a-methyl-4-oxo-1,4,4a,5,5a,6-hexahydrocyclopropa[f]indol-2-yl]pyridin-2-yl}-3-fluoro-4-methoxybenzamide [Example 51]

Second part, the molecule before the results:

Molecule	pIC50
CC1(C(=O)Nc2cc(-c3[nH]c4c(c3Nc3ccccc3)C(=O)[C@@H]3C[C@]3(C)C4=O)ccn2)CC1 (relative stereo) [Example 33, N-{4-[rel-(4aR,5aS)-3-Anilino-5a-methyl-4,6-dioxo-1,4,4a,5,5a,6-hexahydrocyclopropa[f]indol-2-yl]pyridin-2-yl}-1-methylcyclopropanecarboxamide]	6.96
Cn1ccc(C(=O)Nc2cc(-c3[nH]c4c(c3Nc3ccccc3)C(=O)[C@H]3C[C@@]3(C)C4=O)ccn2)n1 (relative stereo) [Example 34, 1-Methyl-N-4-[rel-(4aS,5aR)-5a-methyl-4,6-dioxo-3-(phenylamino)-1,4,4a,5,5a,6-hexahydrocyclopropa[f]indol-2-yl]pyridin-2-yl-1H-pyrazole-3-carboxamide]	7.46
COc1cc(C(=O)Nc2cc(-c3[nH]c4c(c3Nc3ccccc3)C(=O)[C@H]3C[C@@]3(C)C4=O)ccn2)ccc1F (relative stereo) [Example 35, 4-Fluoro-3-methoxy-N-4-[rel-(4aS,5aR)-5a-methyl-4,6-dioxo-3-(phenylamino)-1,4,4a,5,5a,6-hexahydrocyclopropa[f]indol-2-yl]pyridin-2-ylbenzamide]	7.15
O=c1ccccc2[nH]c(-c3ccncc3)c(Nc3ccccc3)c12 [Example 21, 3-(Phenylamino)-2-(pyridin-4-yl)cyclohepta[b]pyrrol-4(1H)-one]	8.10
O=C1CCCCc2[nH]c(-c3ccncc3)c(Nc3ccccc3)c21 [Example 22, 3-(Phenylamino)-2-(pyridin-4-yl)-5,6,7,8-tetrahydrocyclohepta[b]pyrrol-4(1H)-one]	8.22
Cc1ccc(=O)c2c(Nc3ccccc3)c(-c3ccnc(N)c3)[nH]c2c1 [Example 23, 2-(2-Aminopyridin-4-yl)-7-methyl-3-(phenylamino)cyclohepta[b]pyrrol-4(1H)-one]	7.59
(1S,2S)-2-Fluoro-N-4-[[(4aR,5aR) or (4aS,5aS)]-5a-methyl-4-oxo-3-(phenylamino)-1,4,4a,5,5a,6-hexahydrocyclopropa[f]indol-2-yl]pyridin-2-ylcyclopropanecarboxamide [Example 37]	7.96
(5R,7S or 5S,7R)-2-(2-Aminopyridin-4-yl)-6,6-dimethyl-3-(phenylamino)-1,5,6,7-tetrahydro-4H-5,7-methanoindol-4-one [Example 3]	6.19
(5S,7R or 5R,7S)-2-(2-Aminopyridin-4-yl)-6,6-dimethyl-3-(phenylamino)-1,5,6,7-tetrahydro-4H-5,7-methanoindol-4-one [Example 4]	5.53
N-4-[(4aR,5aR or 4aS,5aS)-5a-Methyl-4-oxo-3-(phenylamino)-1,4,4a,5,5a,6-hexahydrocyclopropa[f]indol-2-yl]pyridin-2-ylacetamide [Example 19]	8.10
N-4-[(4aS,5aS or 4aR,5aR)-5a-Methyl-4-oxo-3-(phenylamino)-1,4,4a,5,5a,6-hexahydrocyclopropa[f]indol-2-yl]pyridin-2-ylacetamide [Example 20]	7.44
N-4-[[(4aR,5aR) or (4aS,5aS)]-5a-Methyl-4-oxo-3-(phenylamino)-1,4,4a,5,5a,6-hexahydrocyclopropa[f]indol-2-yl]pyridin-2-yl-1H-pyrazole-3-carboxamide [Example 45]	7.74
N-{4-[[(4aR,5aR) or (4aS,5aS)]-3-Anilino-5a-methyl-4-oxo-1,4,4a,5,5a,6-hexahydrocyclopropa[f]indol-2-yl]pyridin-2-yl}-2,6-difluorobenzamide [Example 46]	8.40
N-{4-[[(4aR,5aR) or (4aS,5aS)]-3-anilino-5a-methyl-4-oxo-1,4,4a,5,5a,6-hexahydrocyclopropa[f]indol-2-yl]pyridin-2-yl}-3-fluoro-4-methoxybenzamide [Example 50]	7.89
N-{4-[[(4aS,5aS) or (4aR,5aR)]-3-anilino-5a-methyl-4-oxo-1,4,4a,5,5a,6-hexahydrocyclopropa[f]indol-2-yl]pyridin-2-yl}-2,6-difluorobenzamide [Example 47]	8.15
